Values quoted from earlier work as cited in US20090312688A1, “IONTOPHORESIS DRUG DELIVERY FORMULATION PROVIDING ACCEPTABLE SENSATION AND DERMAL ANESTHESIA” (Vyteris, Inc., priority 2005, published 2009).

details: iontophoresis in vitro across human skin

Cumulative delivery relative to lidocaine, slightly greater delivery:
CCCNC(C)C(=O)Nc1ccccc1C (stereo not drawn) [prilocaine]
CCN(CC)CCOC(=O)c1ccc(N)cc1 [procaine]
CCCN(CC)C(CC)C(=O)Nc1c(C)cccc1C (stereo not drawn) [etidocaine]
